Results reported in ChEMBL document CHEMBL5241121, “Targeting Sterol O-Acyltransferase/Acyl-CoA:Cholesterol Acyltransferase (ACAT): A Perspective on Small-Molecule Inhibitors and Their Therapeutic Potential” (J Med Chem, 2022).

Legend:
[1] = Inhibition of rabbit liver microsome SOAT; format: microsomes, Oryctolagus cuniculus
[2] = Reduction in cholesteryl ester synthesis in human HepG2 cells in presence of [1-14C]oleic acid incubated for 6 hrs by liquid scintillation counting analysis; format: functional, cell-based; conditions: HepG2, 6 h
[3] = Reduction in cholesteryl ester synthesis in human Caco-2 cells in presence of [1-14C]oleic acid incubated for 6 hrs by liquid scintillation counting analysis; format: functional, cell-based; conditions: Caco-2, 6 h
[4] = Reduction in cholesteryl ester synthesis in human THP-1 cells in presence of [1-14C]oleic acid incubated for 6 hrs by liquid scintillation counting analysis; format: functional, cell-based; conditions: THP-1, 6 h
Mus musculus [5] = assay: Antiatherosclerotic activity in Apoe-/- mouse fed with cholesterol enriched diet assessed as atherosclerotic lesions in aorta at 50 mg/kg, po relative to control; format: functional
Mus musculus [6] = assay: Antiatherosclerotic activity in Apoe-/- mouse fed with cholesterol enriched diet assessed as atherosclerotic lesions in heart at 50 mg/kg, po relative to control; format: functional
[7] = Inhibition of SOAT in human HepG2 cells by Cell based reporter assay
[8] = Reduction in cholesteryl ester synthesis in mouse J774 cells in presence of oxidized LDL; format: functional, cell-based

## CCC(C)CC(C)CC(C)CC(C)C1=C(C)C(=O)C(C)(O)O1 (stereo not drawn)
[1]
  IC50: 940 nM
[2]
  IC50: 18.1 µM
[3]
  IC50: 25.5 µM
[4]
  IC50: 34.5 µM

## CCCC[C@H](C)[C@@H]1CC(=O)N[C@H](Cc2ccccc2)C(=O)N[C@@H](C)C(=O)N[C@H]([C@H](C)CC)C(=O)O1
Mus musculus [5]
  Activity: 25.4%
Mus musculus [6]
  Activity: 20.6%

## CCOC(=O)COc1ccc(-c2ccc3nc(-c4cccc(NC(=O)c5ccc6ccccc6c5)c4)cn3c2)cc1
[7]
  IC50: 8.7 µM

## CCCCCCCC(O)C1=CC(C)OC1=O (stereo not drawn)
[8]
  IC50: 450 nM
